We go through one molecule from publication PMC9820167, “Design and Synthesis of Conformationally Flexible Scaffold as Bitopic Ligands for Potent D3-Selective Antagonists” (International Journal of Molecular Sciences, 2022).

A value given as a limit tells only on which side of the number the result lay.

The target in one test is T1, Muscarinic M5 (Homo sapiens, UniProt P08912).
T1 sequence (P08912 1-532): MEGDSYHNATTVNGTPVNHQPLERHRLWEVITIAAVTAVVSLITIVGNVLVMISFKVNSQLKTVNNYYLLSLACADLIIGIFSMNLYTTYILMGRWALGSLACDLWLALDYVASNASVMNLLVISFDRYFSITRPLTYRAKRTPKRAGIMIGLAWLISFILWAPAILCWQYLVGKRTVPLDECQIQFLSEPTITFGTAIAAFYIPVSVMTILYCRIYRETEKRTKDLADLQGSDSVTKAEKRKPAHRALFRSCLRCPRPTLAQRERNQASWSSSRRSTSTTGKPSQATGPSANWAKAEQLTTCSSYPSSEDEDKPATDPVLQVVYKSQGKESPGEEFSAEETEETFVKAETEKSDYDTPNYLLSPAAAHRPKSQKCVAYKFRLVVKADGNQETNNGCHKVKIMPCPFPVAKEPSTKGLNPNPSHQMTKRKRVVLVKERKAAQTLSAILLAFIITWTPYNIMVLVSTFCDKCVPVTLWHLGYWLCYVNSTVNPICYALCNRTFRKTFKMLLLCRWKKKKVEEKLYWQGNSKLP
As to the kind of experiment: PDSP binding screen. The conditions noted are these: read-out: Ki (nM) or % inhibition at 10 µM: M5.

In another test the target is GABAA. As to the kind of experiment: PDSP binding screen. Conditions: HCl salts.
Another test deals with T2, Muscarinic M2 (Homo sapiens, UniProt P08172).
T2 sequence (P08172 1-466): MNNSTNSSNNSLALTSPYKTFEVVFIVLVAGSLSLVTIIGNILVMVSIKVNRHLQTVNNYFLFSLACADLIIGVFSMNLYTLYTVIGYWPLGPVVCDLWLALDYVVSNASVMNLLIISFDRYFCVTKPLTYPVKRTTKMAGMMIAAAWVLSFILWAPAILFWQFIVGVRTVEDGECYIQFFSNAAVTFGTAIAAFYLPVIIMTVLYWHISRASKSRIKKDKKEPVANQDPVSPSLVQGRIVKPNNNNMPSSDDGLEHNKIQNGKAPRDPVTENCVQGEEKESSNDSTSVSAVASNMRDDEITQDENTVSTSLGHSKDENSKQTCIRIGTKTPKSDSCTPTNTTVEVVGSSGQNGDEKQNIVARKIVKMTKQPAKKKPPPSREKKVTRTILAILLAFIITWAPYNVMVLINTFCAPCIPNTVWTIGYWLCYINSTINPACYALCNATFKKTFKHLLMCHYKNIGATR
As to the kind of experiment: PDSP binding screen.

The next test addresses T3, Serotonin 5-HT1E (Homo sapiens, UniProt P28566).
T3 construct: Psychoactive Drug Screening Program (PDSP)
Description: PDSP binding screen. Conditions: read-out: Ki (nM) or % inhibition at 10 µM: 5-HT1E; PDSP; HCl salts. An excerpt: (§1) Based on the results in the dopamine receptor radioligand binding assays, nine flexible-based compounds were selected for further evaluation for off-target binding with other GPCRs through the Psychoactive Drug Screening Program (PDSP) (Supplemental Table S2). […] For example, many of the N-aryl piperazine-based analogs that our group developed in the past for either the D2 or D3 receptor had high affinity for the 5-HT1A receptor [55, 56, 57, 58]. […] This mitochondrial-based protein is typically used as a target for imaging neuroinflammation. The results of the PDSP-binding assays also confirmed the data obtained in our lab for the binding of this panel of nine compounds to D2 and D3 receptors (Supplemental Table S2).

The target of the next test is T4, Serotonin 5-HT5A (Homo sapiens, UniProt P47898).
T4 construct: Psychoactive Drug Screening Program (PDSP)
Description: PDSP binding screen. The conditions noted are these: read-out: Ki (nM) or % inhibition at 10 µM: 5-HT5A.
Description: as §1

A further test deals with T5, Opioid DOR (Homo sapiens, UniProt P41143).
T5 construct: Psychoactive Drug Screening Program (PDSP)
Description: PDSP binding screen. Conditions: read-out: Ki (nM) or % inhibition at 10 µM: DOR.
Description: as §1

The target of test [1] is T6, Serotonin transporter (SERT) (Homo sapiens, UniProt P31645).
T6 construct: Psychoactive Drug Screening Program (PDSP)
Description: PDSP binding screen. Conditions: PDSP; HCl salts.
Description: as §1

The target of a further test is Adrenergic beta1 (Homo sapiens, UniProt P08588). Description: PDSP binding screen. Conditions: read-out: Ki (nM) or % inhibition at 10 µM: beta1.
Another test deals with human D3 receptors (Homo sapiens, UniProt P35462). As to the kind of experiment: Radioligand binding assay with [125I]IABN, D3 receptor. More on the design: expressed in transfected cells; host or cells: HEK293. On the procedure:
Two different assays were used to evaluate the properties of the analogs described above. The receptor binding affinity was measured by radioligand binding assays using [^125I]IABN with D2 or D3 receptors highly expressed HEK293 cells. The functional activity of the analogs was determined using a β-arrestin recruitment assay. The assay was initially conducted in agonist binding mode to confirm that they function as antagonists at the D3 receptor. Once this efficacy was confirmed, the assay was conducted in antagonist mode to determine the ability of the antagonist to compete with dopamine at the D3 receptor. The results of the antagonist mode assay are reported as IC50 values.
Ki values for D2 and D3 receptors were measured using [^125I]IABN in human D2 and D3 receptors expressed in HEK cells, respectively. A filtration binding assay was used to characterize membrane-associated receptor binding properties. The details for the procedures were described in the literature.

Chain of human D3 receptors (P35462 whole entry): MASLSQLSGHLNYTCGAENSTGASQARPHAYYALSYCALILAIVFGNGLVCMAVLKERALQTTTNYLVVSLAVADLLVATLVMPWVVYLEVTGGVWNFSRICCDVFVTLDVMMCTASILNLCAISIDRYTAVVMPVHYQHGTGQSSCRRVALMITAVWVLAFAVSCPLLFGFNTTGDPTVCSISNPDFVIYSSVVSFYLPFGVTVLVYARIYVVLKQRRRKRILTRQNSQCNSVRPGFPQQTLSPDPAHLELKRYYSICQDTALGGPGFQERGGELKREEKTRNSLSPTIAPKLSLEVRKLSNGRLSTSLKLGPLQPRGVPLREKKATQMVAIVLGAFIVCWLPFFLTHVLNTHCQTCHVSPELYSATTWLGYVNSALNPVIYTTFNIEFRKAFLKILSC
T3 sequence (P28566 whole entry): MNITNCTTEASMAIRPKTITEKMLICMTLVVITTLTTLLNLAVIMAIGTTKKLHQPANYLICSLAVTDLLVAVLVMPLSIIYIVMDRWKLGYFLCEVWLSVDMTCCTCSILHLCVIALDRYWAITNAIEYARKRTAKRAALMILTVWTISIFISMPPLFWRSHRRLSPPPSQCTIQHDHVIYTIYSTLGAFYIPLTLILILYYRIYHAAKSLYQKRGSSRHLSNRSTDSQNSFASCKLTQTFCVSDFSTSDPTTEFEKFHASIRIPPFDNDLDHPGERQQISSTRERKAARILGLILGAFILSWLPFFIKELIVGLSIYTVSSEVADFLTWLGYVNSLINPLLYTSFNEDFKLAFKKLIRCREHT
Chain of Adrenergic beta1 (P08588 whole entry): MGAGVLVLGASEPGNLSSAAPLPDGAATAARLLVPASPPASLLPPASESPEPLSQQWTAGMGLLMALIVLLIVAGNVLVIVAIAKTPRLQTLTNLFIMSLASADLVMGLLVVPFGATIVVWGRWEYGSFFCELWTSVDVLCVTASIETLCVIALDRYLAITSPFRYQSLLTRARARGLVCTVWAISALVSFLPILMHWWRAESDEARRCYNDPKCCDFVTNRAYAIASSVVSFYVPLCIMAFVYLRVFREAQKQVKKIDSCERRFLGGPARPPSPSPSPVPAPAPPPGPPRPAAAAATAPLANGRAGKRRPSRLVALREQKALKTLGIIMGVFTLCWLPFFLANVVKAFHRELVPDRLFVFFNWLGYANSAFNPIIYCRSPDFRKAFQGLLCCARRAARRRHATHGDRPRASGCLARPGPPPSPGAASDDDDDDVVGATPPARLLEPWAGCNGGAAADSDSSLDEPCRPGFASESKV
T5 sequence (P41143 whole entry): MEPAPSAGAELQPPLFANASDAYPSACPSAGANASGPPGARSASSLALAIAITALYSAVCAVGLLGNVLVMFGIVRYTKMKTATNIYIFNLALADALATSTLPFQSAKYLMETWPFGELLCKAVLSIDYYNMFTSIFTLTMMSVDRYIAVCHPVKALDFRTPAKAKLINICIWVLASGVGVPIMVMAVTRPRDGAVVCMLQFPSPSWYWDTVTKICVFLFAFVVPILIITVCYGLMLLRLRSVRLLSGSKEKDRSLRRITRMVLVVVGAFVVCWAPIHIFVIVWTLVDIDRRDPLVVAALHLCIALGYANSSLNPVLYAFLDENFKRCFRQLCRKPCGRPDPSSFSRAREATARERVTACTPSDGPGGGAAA
T4 sequence (P47898 whole entry): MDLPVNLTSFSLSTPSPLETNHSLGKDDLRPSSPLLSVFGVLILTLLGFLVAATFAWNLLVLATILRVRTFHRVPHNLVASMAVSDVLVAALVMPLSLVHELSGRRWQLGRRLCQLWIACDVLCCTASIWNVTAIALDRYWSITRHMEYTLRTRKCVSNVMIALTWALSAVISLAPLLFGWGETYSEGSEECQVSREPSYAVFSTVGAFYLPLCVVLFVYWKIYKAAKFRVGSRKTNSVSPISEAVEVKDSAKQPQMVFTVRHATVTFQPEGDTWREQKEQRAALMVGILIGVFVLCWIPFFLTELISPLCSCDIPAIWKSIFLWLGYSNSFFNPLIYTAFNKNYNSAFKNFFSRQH
T6 sequence (P31645 whole entry, species assumed): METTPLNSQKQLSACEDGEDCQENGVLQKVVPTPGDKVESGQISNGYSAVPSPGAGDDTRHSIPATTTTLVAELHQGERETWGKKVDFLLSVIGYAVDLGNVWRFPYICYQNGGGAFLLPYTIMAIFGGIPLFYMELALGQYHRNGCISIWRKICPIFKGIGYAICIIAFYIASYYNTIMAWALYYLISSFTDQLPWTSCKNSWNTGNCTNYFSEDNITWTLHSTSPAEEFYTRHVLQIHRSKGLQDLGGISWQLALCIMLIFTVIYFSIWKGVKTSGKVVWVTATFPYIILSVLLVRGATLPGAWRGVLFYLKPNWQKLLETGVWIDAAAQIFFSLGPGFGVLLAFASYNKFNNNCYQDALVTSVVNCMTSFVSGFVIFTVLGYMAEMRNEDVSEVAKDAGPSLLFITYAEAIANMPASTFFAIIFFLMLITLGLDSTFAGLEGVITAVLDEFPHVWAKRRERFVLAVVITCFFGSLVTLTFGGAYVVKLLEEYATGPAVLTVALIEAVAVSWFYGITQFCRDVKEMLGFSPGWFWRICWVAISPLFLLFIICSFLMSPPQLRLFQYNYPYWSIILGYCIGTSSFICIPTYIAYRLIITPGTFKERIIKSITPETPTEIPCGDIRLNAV

As to `CCN(CCCNC(=O)c1cc2ccccc2n1C)CCNC(=O)c1cc(Br)cc(OC)c1OC` [21j, N-(3-((2-(5-Bromo-2,3-dimethoxybenzamido)ethyl)(ethyl)amino)propyl)-1-methyl-1H-indole-2-carboxamide], the inhibition at 10 µM at Muscarinic M5, on Serotonin 5-HT1E, at Serotonin 5-HT5A, on Opioid DOR and at Adrenergic beta1 was below 50% each time. Further, on GABAA, the “Ki (nM) or % inhibition at 10 µM: GABAA” value is given as “N/A (N/A; not active means less than 50% inhibition that was obtained in primary binding assay at 10 µM of the compound)”. Also, the Ki on Muscarinic M2 amounted to 2970 nM; in test [1], 415 nM; on human D3 receptors ([125I]IABN, D3 receptors expressed in HEK cells, mean ± SEM, three experiments, HCl salts, read-out: Ki ± SEM (nM) D3), 3.1 ± 0.5 nM. The D2/D3 on human D3 receptors (selectivity ratio of Ki D2 / Ki D3 (fold)) came out at 61.9.

In general, inhibition refers to the percentage by which the read-out fell short of the control. Usually Ki stands for the equilibrium dissociation constant of an inhibitor or competing ligand from its target.
